These results are taken from US11117876B2, “Crystalline form of ozanimod hydrochloride, and processes for preparation thereof” (RECEPTOS, LLC, priority 2017, dated 2021).

Each structure is given as a SMILES string. “Also recorded” adds a separate entry of the source. Where a name gives a salt, the structure may show the parent alone.

Holding throughout (type): physicochemical
Data set [1] can be described thus: Dynamic solubility of Form CS2 in SGF, FeSSIF, FaSSIF and water. To be noted: for solubility at 1 h / solubility at 4 h / solubility at 24 h: thermodynamic from solid. The protocol:
High Performance Liquid Chromatography (HPLC) data for solubility test in example 5 of the present disclosure were collected from an Agilent 1100 with Diode Array Detector (DAD). The HPLC method parameters are as follows: • Column: L005# Waters Xbridge C18, 150×4.6 mm, 5 μm • Mobile Phase: A: 0.1% TFA in H2O • B: 0.1% TFA in Acetonitrile
• Flow rate: 1.0 ml/min • Injection Volume: 5 μl • Detection wavelength: 270 nm • Column Temperature: 40° C. • Diluent: MeOH/THF (v/v, 6/4)
Simulated gastrointestinal fluids such as SGF (Simulated gastric fluids), FaSSIF (Fasted state simulated intestinal fluids) and FeSSIF (Fed state simulated intestinal fluids) are biorelevant media. Solubility in such media is closer to that in human environment, which can reflect the effects of gastrointestinal environment on drug release better.
20 mg of Form CS2 was suspended into 1.5 mL of SGF, 1.5 mL of […], 1.5 mL of […] and 1.5 mL of water to get saturated solutions. After equilibrated for 1 h, 4 h and 24 h, concentrations (mg/mL) of the saturated solutions were measured by HPLC.

Data set [2] in a line: Hygroscopicity of Form CS2 by dynamic vapor sorption (DVS). To be noted: for Weight gain under 80% RH: 25° C., hydrochloride. The protocol: Dynamic Vapor Sorption (DVS) is measured via a SMS (Surface Measurement Systems Ltd.) intrinsic DVS instrument. Its control software is DVS-Intrinsic control software, and its analysis software is DVS-Intrinsic Analysis software. Typical Parameters for DVS test are as follows: • Temperature: 25° C. • Gas and flow rate: N2, 200 mL/min • dm/dt: 0.002%/min • RH range: 0% RH to 95% RH
Dynamic vapor sorption (DVS) was applied to test hygroscopicity of Form CS2 with about 10 mg of sample. The DVS plot of Form CS2 is depicted in FIG. 9.

The nature of data set [3]: Particle size distribution of Form CS2 (laser particle size analyzer). To be noted: wet mode, Isopar G. Here is the method: The particle size distribution data in the present disclosure were acquired by an S3500 laser particle size analyzer of Microtrac. Microtrac S3500 is equipped with an SDC (Sample Delivery Controller). The test is carried out in wet mode, and the dispersion medium is Isopar G. The parameters are as follows:
10-30 mg of Form CS2 and 10 mL of Isopar G (containing 0.2% lecithin) were mixed thoroughly and then transferred into the SDC. The measurement was started when the sample amount indicator is in appropriate position. The average particle diameter calculated by volume, the diameter at which 10% mass is comprised of smaller particles, the diameter at which 50% mass is comprised of smaller particles and the diameter at which 90% mass is comprised of smaller particles were obtained in particle size distribution test.
Explanation of the abbreviations used in the present invention is as follows: • MV: Average particle diameter calculated by volume. • D10: the size in microns below which 10 percent of the particles reside on a volume basis. • D50: the size in microns below which 50 percent of the particles reside on a volume basis, also known as the median diameter. • D90: the size in microns below which 90 percent of the particles reside on a volume basis.

The nature of data set [4]: Long-term and accelerated stability of Form CS2 (XRPD and HPLC purity after storage). To be noted: 7 weeks, open dish, hydrochloride. An excerpt: X-ray powder diffraction pattern in the present disclosure was acquired by a Panalytical Empyrean X-ray powder diffractometer. The parameters of the X-ray powder diffraction method of the present disclosure were as follows: • X-ray Reflection: Cu, Kα. • Kα1 (Å): 1.540598; Kα2 (ÅA): 1.544426 • Kα2/Kα1 intensity ratio: 0.50 • Voltage: 45 (kV) • Current: 40 (mA) • Scan range: from 3.0 to 40.0 degree
High Performance Liquid Chromatography (HPLC) data for purity test in example 4 of the present disclosure were collected from an Agilent 1260 with UV Variable Wavelength Detector (VWD). The HPLC method parameters are as follows: • Column: Waters XBridge C18 150×4.6 mm, 5 μm • Mobile Phase: A: 0.1% TFA in H2O • B: 0.1% TFA in Acetonitrile
• Flow rate: 1.0 mL/min • Injection Volume: 10 μL • Detection wavelength: 270 nm • Column Temperature: 40° C. • Diluent: MeOH/THF (v/v, 6/4)
Three solid samples of Form CS2 were stored under the conditions of 25° C./60% RH, 40° C./75% RH and 60° C./75% RH for 7 weeks in open dishes. XRPD of the samples was tested and the physical stability results are shown in FIG. 7 (from top to bottom: XRPD pattern of Form CS2 before and after being stored under the conditions of 25° C./60% RH, 40° C./75% RH and 60° C./75% RH for 7 weeks). Chemical purity of Form CS2 was tested after stored under the conditions of 25° C./60% RH and 40° C./75% RH for 7 weeks and the results are shown in Table 4.

Data set [5] can be described thus: Mechanical stability of Form CS2 (manual grinding, XRPD). To be noted: ground manually for 5 minutes in a mortar. The protocol:
Solid sample of Form CS2 was ground manually for 5 minutes in a mortar. The XRPD comparison pattern of Form CS2 before and after grinding is depicted in FIG. 8.

[6] abbreviates: FaSSIF (fasted state simulated intestinal fluid), FaSSIF.
The mark [7] stands for this setting: FeSSIF (fed state simulated intestinal fluid), FeSSIF.

Turning to `CC(C)Oc1ccc(-c2nc(-c3cccc4c3CC[C@@H]4NCCO)no2)cc1C#N` [Form CS2, ozanimod hydrochloride], the solubility at 1 h in data set [1] (setting [6]) was 3000 µg/mL; in data set [1] (setting [7]), 300 µg/mL. The solubility at 4 h is 3000 µg/mL in data set [1] (FaSSIF (fasted state simulated intestinal fluid), FaSSIF, 4 h); 280 µg/mL in data set [1] (FeSSIF (fed state simulated intestinal fluid), FeSSIF, 4 h); 2200 µg/mL in data set [1] (water, H2O, 4 h). In addition, the solubility at 24 h in data set [1] (setting [6]) is 3100 µg/mL; in data set [1] (setting [7]), 320 µg/mL; in data set [1] (SGF (simulated gastric fluid), simulated gastric fluid, SGF) it was 240 µg/mL; in data set [1] (water, H2O), 2400 µg/mL. Also, the Solubility in data set [1] (SGF, 4 h) was 210 µg/mL. For the same compound, the “Solubility (in words)” value in data set [1] (in SGF, FeSSIF, FaSSIF and H2O) is recorded as “high”. Besides, the “Weight gain under 80% RH” value in data set [2] and in data set [2] (listed as Form CS2 of ozanimod hydrochloride) was 2.34% in each case. Moreover, the “Hygroscopicity (in words)” value in data set [2] (80% RH) is on record as “low”. Besides, the D10 in data set [3] is on record as 7.6 μm. For the same compound, the D50 in data set [3] worked out at 44.90 μm. This compound also had a D90 in data set [3] of 149.4 μm. Also, the “Particle size distribution (in words)” value in data set [3] is reported as “uniform”. In addition, the “MV (average particle diameter calculated by volume)” value is “about 64.22 μm” in data set [3] (hydrochloride) and 64.22 μm in data set [3] (listed as CS2, hydrochloride). The “Crystalline form change after storage (XRPD)” value in data set [4] (25° C./60% RH), in data set [4] (40° C./75% RH) and in data set [4] (60° C./75% RH) was “no form change; also recorded: doesn't change” throughout. In addition, the “Crystalline form change after grinding (XRPD)” value in data set [5] is listed as “doesn't change”.

By solubility is commonly meant how much of the substance goes into solution per volume. Read a low solubility as a poorly soluble substance. For orientation: Solubility means how much of the substance goes into solution per volume. Low values mean little dissolved substance, high ones much dissolved substance.
